Target: T1, human metabotropic glutamate 7 receptor (hmGlu7) (Homo sapiens, UniProt Q14831)
T1 construct: expressed in transfected cells
Assay: mGlu7 assay on HEK-expressing human mGlu7: fluorescent cell based Ca2+ mobilization assay (FLIPR), inhibition of EC80 L-AP4 response
Conditions: HEK-293 cells expressing hmGlu7; EC80 L-AP4 stimulation; mean of at least three independent experiments in duplicate; read-out: Ca2+ Flux (mean IC50)
Source text: mGlu7 Assay on HEK-Expressing Human mGlu7
The cDNA encoding the human metabotropic glutamate 7 receptor (hmGlu7), (accession number NM_181874.2, NCBI Nucleotide database browser), was subcloned into an expression vector containing also the hygromycin resistance gene. In parallel, the cDNA encoding a G protein allowing redirection of the activation signal to intracellular calcium flux was subcloned into a different expression vector containing also the Puromycin resistance gene. Transfection of both these vectors into HEK293 cells with PolyFect reagent (Qiagen) according to supplier's protocol, and hygromycin and puromycin treatment allowed selection of antibiotic resistant cells which had integrated stably one or more copies of the plasmids. Positive cellular clones expressing hmGlu7 were identified in a functional assay measuring changes in calcium fluxes in response to glutamate and L-AP4 or known mGlu7 orthosteric antagonists.
HEK-293 cells expressing hmGlu7 were maintained in media containing DMEM, Fetal Bovine Serum (10%), Glutamax™ (2 mM), penicillin (100 units/mL), streptomycin (100 μg/mL), geneticin (100 μg/mL) and hygromycin-B (40 μg/mL) and puromycin (1 μg/mL) at 37° C. with 5% CO2 in a humidified atmosphere.
Fluorescent Cell Based-Ca^2+ Mobilization Assay Human mGlu7 HEK-293 cells were plated out 24 hours prior to a fluorescent cell-based calcium mobilization assay using FLIPR^384 assay (Molecular Device, Sunnyvale, CA, USA) in black-walled, clear-bottomed, poly-L-ornithine-coated 384-well plates at a density of 25,000 cells/well in a glutamine/glutamate free DMEM medium containing fetal bovine serum (10%), penicillin (100 units/mL), streptomycin (100 μg/mL) and doxycyline (1 μg/ml) at 37° C. with 5% CO2 in a humidified atmosphere.
On the day of the assay, the medium was aspirated and the cells were loaded with a 3 μM solution of Fluo4-AM (LuBioScience, Lucerne, Switzerland) in 0.03% pluronic acid. After 1 hour at 37° C./5% CO2, the non incorporated dye was removed by washing cell plate with the assay buffer. All assays were performed in a pH 7.4 buffered-solution containing 20 mM HEPES, 143 mM NaCl, 6 mM KCl, 1 mM MgSO4, 1 mM CaCl2, 0.125 mM sulfinpyrazone and 0.1% glucose.
After 10 s of basal fluorescence recording, various concentrations of the compounds of the invention were added to the cells. Changes in fluorescence levels were first monitored for 180 s in order to detect any agonist activity of the compounds. Then the cells were stimulated by an EC80 L-AP4 concentration for an additional 110 s in order to measure inhibiting activities of the compounds of the invention. EC80 L-AP4 concentration is the concentration giving 80% of the maximal glutamate response.
The concentration-response curves of L-AP4 or representative compounds of the present invention were generated using the Prism GraphPad software (Graph Pad Inc, San Diego, USA). The curves were fitted to a four-parameter logistic equation: […]
allowing determination of IC50 values.
The Table 3 below represents the mean IC50 obtained from at least three independent experiments of selected molecules performed in duplicate.

T1 sequence (Q14831 35-922 isoform Q14831-2): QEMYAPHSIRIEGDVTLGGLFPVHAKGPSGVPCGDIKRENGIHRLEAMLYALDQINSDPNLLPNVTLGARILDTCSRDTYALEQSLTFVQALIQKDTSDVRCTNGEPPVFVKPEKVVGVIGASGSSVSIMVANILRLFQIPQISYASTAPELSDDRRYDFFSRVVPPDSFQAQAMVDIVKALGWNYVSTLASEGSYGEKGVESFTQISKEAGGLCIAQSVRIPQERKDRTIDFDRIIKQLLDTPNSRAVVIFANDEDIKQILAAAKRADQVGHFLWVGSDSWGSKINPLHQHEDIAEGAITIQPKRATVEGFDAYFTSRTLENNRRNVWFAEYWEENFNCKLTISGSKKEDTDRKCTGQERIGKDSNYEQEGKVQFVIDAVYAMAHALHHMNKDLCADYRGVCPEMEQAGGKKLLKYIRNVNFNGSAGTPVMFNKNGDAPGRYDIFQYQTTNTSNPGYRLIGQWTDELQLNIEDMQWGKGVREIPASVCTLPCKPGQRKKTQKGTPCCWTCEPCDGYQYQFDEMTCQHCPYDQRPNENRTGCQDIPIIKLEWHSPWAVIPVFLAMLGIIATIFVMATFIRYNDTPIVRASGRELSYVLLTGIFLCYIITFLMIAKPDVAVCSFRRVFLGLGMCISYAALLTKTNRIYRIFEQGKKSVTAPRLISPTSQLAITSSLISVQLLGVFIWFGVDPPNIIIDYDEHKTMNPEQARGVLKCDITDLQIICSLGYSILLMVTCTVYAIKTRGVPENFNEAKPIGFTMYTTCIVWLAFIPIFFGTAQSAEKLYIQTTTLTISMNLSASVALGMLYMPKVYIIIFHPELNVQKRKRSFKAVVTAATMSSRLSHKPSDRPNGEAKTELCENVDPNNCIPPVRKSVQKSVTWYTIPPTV

Row | SMILES | IC50 [nM]
1 | COc1cccc(-n2c(C)c3cnn(-c4ccc(C(=O)N(C)C)cc4)c(=O)c3c2C)c1 [1-75] | 100 to 1000
2 | COc1ccc(F)c(-n2c(C)c3cnn(-c4ccccn4)c(=O)c3c2C)c1 [1-194] | 100 to 1000
3 | COc1ccc(-n2c(C)c3cnn(-c4ccc(OC)cc4)c(=O)c3c2C)cc1 [1-103] | 100 to 1000
4 | Cc1c2cnn(-c3ccccn3)c(=O)c2c(C)n1-c1cccc(-c2ccco2)c1 [1-136] | < 100
5 | Cc1c2cnn(-c3cccnc3)c(=O)c2c(C)n1-c1cccc(N2CCC2)c1 [1-164] | < 100
6 | Cc1c2cnn(-c3ccc(C(N)=O)cc3)c(=O)c2c(C)n1-c1ccccc1 [1-57] | 100 to 1000
7 | CCc1cccc(-n2c(C)c3cnn(-c4ccccn4)c(=O)c3c2C)c1 [1-85] | 100 to 1000
8 | Cc1c2cnn(-c3cccc(S(C)(=O)=O)c3)c(=O)c2c(C)n1-c1cccc(N2CCC2)c1 [1-151] | < 100
9 | COc1cccc(-n2c(C)c3cnn(-c4cccc(CNC(C)=O)c4)c(=O)c3c2C)c1 [1-115] | 100 to 1000
10 | COc1cccc(-n2c(C)c3cnn(-c4ccc(N5CCOCC5)cc4)c(=O)c3c2C)c1 [1-70] | 100 to 1000
11 | COc1cc(-n2ncc3c(C)n(-c4cccc(N5CCC5)c4)c(C)c3c2=O)ccc1CO [1-166] | < 100
12 | Cc1ccccc1-n1c(C)c2cnn(-c3ccccc3)c(=O)c2c1C [1-7] | 100 to 1000
13 | Cc1c2cnn(-c3ccc(S(N)(=O)=O)cc3)c(=O)c2c(C)n1-c1ccccc1 [1-28] | < 100
14 | Cc1c2cnn(-c3ccccn3)c(=O)c2c(C)n1-c1ccc2cc[nH]c2c1 [1-80] | 1000 to 10000
15 | Cc1cc(-n2ncc3c(C)n(-c4cccc(N5CCC5)c4)c(C)c3c2=O)ccn1 [1-182] | < 100
16 | COc1cccc(-n2c(C)c3cnn(-c4ccc(OC)c(OC)c4)c(=O)c3c2C)c1 [1-117] | 100 to 1000
17 | Cc1c2cnn(-c3ncc(F)cn3)c(=O)c2c(C)n1-c1cc(N2CCC2)ccc1F [1-218] | 100 to 1000
18 | Cc1c2cnn(-c3ccc(N4CCNCC4)cc3)c(=O)c2c(C)n1-c1cccc(N2CCC2)c1 [1-174] | < 100
19 | Cc1c2cnn(-c3ccccc3)c(=O)c2c(C)n1-c1ccc(Cl)cc1 [1-8] | 100 to 1000
20 | COc1cccc(-n2c(C)c3cnn(-c4ccc(C)cn4)c(=O)c3c2C)c1 [1-172] | 100 to 1000
21 | Cc1ccc(-n2ncc3c(C)n(-c4ccccc4)c(C)c3c2=O)cc1 [1-15] | < 100
22 | Cc1c2cnn(-c3ccccn3)c(=O)c2c(C)n1-c1cccc(N2CCC2)c1 [1-102, 6-(3-(Azetidin-1-yl)phenyl)-5,7-dimethyl-2-(pyridin-2-yl)-2,6-dihydro-1H-pyrrolo[3,4-d]pyridazin-1-one] | < 100
23 | Cc1c2cnn(-c3ccccn3)c(=O)c2c(C)n1-c1ccc(F)c(N2CCC2)c1 [1-192] | 100 to 1000

Row | SMILES | IC50 [nM]
24 | COCc1cccc(-n2c(C)c3cnn(-c4ccccc4)c(=O)c3c2C)c1 [1-108] | 100 to 1000
25 | Cc1c2cnn(-c3ccccc3)c(=O)c2c(C)n1-c1cccc(N(C)C)c1 [1-35] | < 100
26 | COc1cccc(-n2c(C)c3cnn(-c4ccc(C(C)(C)O)cn4)c(=O)c3c2C)c1 [1-216] | < 100
27 | Cc1c2cnn(-c3ccccn3)c(=O)c2c(C)n1-c1cccc(N2CCCCC2)c1 [1-143] | < 100
28 | COc1cccc(-n2c(C)c3cnn(-c4ccccc4OC)c(=O)c3c2C)c1 [1-148] | 100 to 1000
29 | COc1cccc(-n2c(C)c3cnn(-c4ccc(S(C)(=O)=O)cc4)c(=O)c3c2C)c1 [1-119] | < 100
30 | Cc1c2cnn(-c3ccc(N4CCOCC4)cc3)c(=O)c2c(C)n1-c1ccccc1 [1-93] | 100 to 1000
31 | COc1cccc(-n2c(C)c3cnn(-c4ccc(C(C)(C)C)cn4)c(=O)c3c2C)c1 [1-206] | 100 to 1000
32 | Cc1c2cnn(-c3ccccn3)c(=O)c2c(C)n1-c1cc(N2CCC2)ccc1F [1-196] | < 100
33 | COc1ccc(-n2c(C)c3cnn(-c4ccc(CO)cc4)c(=O)c3c2C)cc1 [1-98] | 100 to 1000
34 | Cc1c2cnn(-c3ccccn3)c(=O)c2c(C)n1-c1cccc2c1CCN2C [1-210] | 100 to 1000
35 | COc1ccc(-n2ncc3c(C)n(-c4cccc(N5CCOCC5)c4)c(C)c3c2=O)cc1 [1-67] | 100 to 1000
36 | Cc1cccc(-n2c(C)c3cnn(-c4ccccn4)c(=O)c3c2C)c1 [1-45] | 100 to 1000
37 | Cc1c2cnn(-c3ncc(F)cn3)c(=O)c2c(C)n1-c1cccc(N2CCC2)c1 [1-226] | < 100
38 | CNC(=O)Cc1ccc(-n2ncc3c(C)n(-c4cccc(N5CCC5)c4)c(C)c3c2=O)cc1 [1-180] | < 100
39 | COc1cccc(-n2c(C)c3cnn(-c4cncnc4)c(=O)c3c2C)c1 [1-95] | 100 to 1000
40 | Cc1c2cnn(-c3ncc(F)cn3)c(=O)c2c(C)n1-c1cccc2c1ccn2C1CC1 [1-214] | < 100
41 | COc1cccc(-n2c(C)c3cnn(-c4ncc(C)cn4)c(=O)c3c2C)c1Cl [1-204] | 100 to 1000
42 | COc1cccc(-n2c(C)c3cnn(-c4ccc(OC)nc4)c(=O)c3c2C)c1 [1-127] | 100 to 1000
43 | COc1cc(-n2c(C)c3cnn(-c4ccccn4)c(=O)c3c2C)ccc1C [1-79] | 100 to 1000
44 | COc1cccc(-n2c(C)c3cnn(-c4ccccn4)c(=O)c3c2C)c1Cl [1-197] | 100 to 1000
45 | Cc1c2cnn(-c3ccc(C#N)cn3)c(=O)c2c(C)n1-c1cccc(N2CCC2)c1 [1-160] | < 100
46 | Cc1c2cnn(-c3ccc(CCF)cc3)c(=O)c2c(C)n1-c1cccc(N2CCC2)c1 [1-189, 6-(3-(Azetidin-1-yl)phenyl)-2-(4-(2-fluoroethyl)phenyl)-5,7-dimethyl-2,6-dihydro-1H-pyrrolo[3,4-d]pyridazin-1-one] | < 100

Row | SMILES | IC50 [nM]
47 | CCOc1ccc(-n2ncc3c(C)n(-c4ccccc4)c(C)c3c2=O)cc1 [1-60] | 100 to 1000
48 | Cc1cccc(-n2ncc3c(C)n(-c4ccccc4)c(C)c3c2=O)c1 [1-14] | < 100
49 | Cc1c2cnn(-c3ccccc3)c(=O)c2c(C)n1-c1cccc(N2CCC2)c1 [1-141] | < 100
50 | Cc1c2cnn(-c3ccccn3)c(=O)c2c(C)n1-c1ccc2c(c1)OCO2 [1-55] | 100 to 1000
51 | Cc1ccc(-n2ncc3c(C)n(-c4ccccc4)c(C)c3c2=O)cn1 [1-50] | 100 to 1000
52 | COCc1cccc(-n2c(C)c3cnn(-c4ccccn4)c(=O)c3c2C)c1 [1-107] | 1000 to 10000
53 | COc1cccc(-n2c(C)c3cnn(-c4ccnc(OC)c4)c(=O)c3c2C)c1 [1-121] | < 100
54 | Cc1c2cnn(-c3ccc(C(=O)CNC(=O)OC(C)(C)C)cc3)c(=O)c2c(C)n1-c1cccc(N2CCC2)c1 [1-184] | 100 to 1000
55 | COc1ccc(-n2c(C)c3cnn(-c4cccnc4)c(=O)c3c2C)cc1 [1-46] | 100 to 1000
56 | COc1cccc(-n2c(C)c3cnn(-c4ccc(N5CCOCC5)nc4)c(=O)c3c2C)c1 [1-91] | 100 to 1000
57 | Cc1cccnc1-n1ncc2c(C)n(-c3cccc(N4CCC4)c3)c(C)c2c1=O [1-159] | 100 to 1000
58 | Cc1c2cnn(-c3ccccc3)c(=O)c2c(C)n1-c1cccc(N2CCOCC2)c1 [1-33] | 100 to 1000
59 | Cc1c2cnn(-c3ncccc3F)c(=O)c2c(C)n1-c1cc(F)cc(N2CCC2)c1 [1-209] | < 100
60 | Cc1c2cnn(-c3ccc(CCO)cc3)c(=O)c2c(C)n1-c1cccc(N2CCC2)c1 [1-169, 6-(3-(Azetidin-1-yl)phenyl)-2-(4-(2-hydroxyethyl)phenyl)-5,7-dimethyl-2,6-dihydro-1H-pyrrolo[3,4-d]pyridazin-1-one] | < 100
61 | Cc1c2cnn(-c3ccccc3F)c(=O)c2c(C)n1-c1cccc(N2CCC2)c1 [1-177] | < 100
62 | Cc1ccc(-n2c(C)c3cnn(-c4ccccc4)c(=O)c3c2C)cc1 [1-1] | < 100
63 | COc1cccc(-n2c(C)c3cnn(-c4ncccn4)c(=O)c3c2C)c1F [1-234] | 100 to 1000
64 | Cc1c2cnn(-c3ncccn3)c(=O)c2c(C)n1-c1cccc(OC2CC2)c1F [1-236] | < 100
65 | COc1cccc(-n2ncc3c(C)n(-c4ccccc4)c(C)c3c2=O)c1 [1-12] | < 100
66 | Cc1c2cnn(-c3cccc(C#N)c3)c(=O)c2c(C)n1-c1ccccc1 [1-16] | 100 to 1000
67 | Cc1c2cnn(-c3cccc(N4CCOCC4)c3)c(=O)c2c(C)n1-c1cccc(N2CCC2)c1 [1-167] | 100 to 1000
